Read-outs that look alike come from different tables or passages of the source.
What was measured:
[1] = Mouse plasma stability protocol, up to 1 h (Examples 16-18); settings: for % Remaining (1 h): % Remaining of parent after 1 h incubation in mouse plasma at 37° C. (10 μM)
[2] = Metabolite profiling and identification; format: in vitro ADME; set-up: key: —: Not detected; settings: for Metabolite Hydrolysis (SN-38): M+1 393.3; for Metabolite Hydrolysis (SDC-TRAP-0062): M+1 462.3; for Metabolite Hydrolysis (SN-38) + glucuronidation: M+1 569.3; for Metabolite Hydrolysis (SDC-TRAP-0062) + glucuronidation: M+1 638.3; for Metabolite Hydrolysis (SDC-TRAP-0063): M+1 880.3; for Metabolite Hydrolysis (SDC-TRAP-0063) + glucuronidation: M+1 1056.4; for Metabolite Glucuronidation: M+1 1136.4; for Metabolite N-dealkylation + glucuronidation: M+1 527.3; for Metabolite Sulfation: M+1 542.3
Source text: Metabolite Profiling and Identification: Metabolite profiling/identification for SDC-TRAP-0063 (M+1:880.3)

[3] = female, SCID, mouse, in vivo

CCNC(=O)c1nnc(-c2cc(C(C)C)c(O)cc2O)n1-c1ccc(S(=O)(=O)N2CCC(C(=O)N3CCN(C(=O)Oc4ccc5nc6c(c(CC)c5c4)Cn4c-6cc5c(c4=O)COC(=O)C5(O)CC)CC3)CC2)cc1 (centres unmarked) [SDC-TRAP-0383, 4,11-diethyl-4-hydroxy-3,14-dioxo-3,4,12,14-tetrahydro-1H-pyrano[3′,4′:6,7]indolizino[1,2-b]quinolin-9-yl 4-(1-((4-(3-(2,4-dihydroxy-5-isopropylphenyl)-5-(ethylcarbamoyl)-4H-1,2,4-triazol-4-yl)phenyl)sulfonyl)piperidine-4-carbonyl)piperazine-1-carboxylate]
% Remaining (1 h) [1]: 47.6%

CCNC(=O)c1nnc(-c2cc(C(C)C)c(O)cc2O)n1-c1ccc(CN2CCC(C(=O)N3CCC(C(=O)OC4(CC)C(=O)OCc5c4cc4n(c5=O)Cc5c-4nc4ccc(O)cc4c5CC)CC3)CC2)cc1 (centres unmarked) [SDC-TRAP-0076, 4,11-diethyl-9-hydroxy-3,14-dioxo-3,4,12,14-tetrahydro-1H-pyrano[3′,4′:6,7]indolizino[1,2-b]quinolin-4-yl 1-(1-(4-(3-(2,4-dihydroxy-5-isopropylphenyl)-5-(ethylcarbamoyl)-4H-1,2,4-triazol-4-yl)benzyl)piperidine-4-carbonyl)piperidine-4-carboxylate]
% Remaining (1 h) [1]: 96.0% | % Remaining (1 h, 37° C.) ([1]; mouse plasma, 1 h, 37° C.): 96%

CCc1c2c(nc3ccc(OC(=O)N4CCC(S(=O)(=O)N5CCC(CCn6ccc7cc(-n8c(O)nnc8-c8cc(C(C)C)c(O)cc8O)ccc76)CC5)CC4)cc13)-c1cc3c(c(=O)n1C2)COC(=O)[C@]3(O)CC [SDC-TRAP-0336, (S)-4,11-diethyl-4-hydroxy-3,14-dioxo-3,4,12,14-tetrahydro-1H-pyrano[3′,4′:6,7]indolizino[1,2-b]quinolin-9-yl 4-((4-(2-(5-(3-(2,4-dihydroxy-5-isopropylphenyl)-5-hydroxy-4H-1,2,4-triazol-4-yl)-1H-indol-1-yl)ethyl)piperidin-1-yl)sulfonyl)piperidine-1-carboxylate]
% Remaining (1 h) [1]: 31.7%

CCNC(=O)c1nnc(-c2cc(C(C)C)c(O)cc2O)n1-c1ccc2c(c1)CN(C(=O)Oc1ccc3nc4c(c(CC)c3c1)Cn1c-4cc3c(c1=O)COC(=O)C3(O)CC)C2 (centres unmarked) [SDC-TRAP-0392, 4,11-diethyl-4-hydroxy-3,14-dioxo-3,4,12,14-tetrahydro-1H-pyrano[3′,4′:6,7]indolizino[1,2-b]quinolin-9-yl 5-(3-(2,4-dihydroxy-5-isopropylphenyl)-5-(ethylcarbamoyl)-4H-1,2,4-triazol-4-yl)isoindoline-2-carboxylate]
% Remaining (1 h) [1]: 44.7%

CCc1c2c(nc3ccc(OC(=O)N4CCC(CCn5ccc6cc(-n7c(O)nnc7-c7cc(C(C)C)c(O)cc7O)ccc65)CC4)cc13)-c1cc3c(c(=O)n1C2)COC(=O)C3(CC)OP(=O)(O)O (centres unmarked) [SDC-TRAP-0397, 4,11-diethyl-3,14-dioxo-4-(phosphonooxy)-3,4,12,14-tetrahydro-1H-pyrano[3′,4′: 6,7]indolizino[1,2-b]quinolin-9-yl 4-(2-(5-(3-(2,4-dihydroxy-5-isopropylphenyl)-5-hydroxy-4H-1,2,4-triazol-4-yl)-1H-indol-1-yl)ethyl)piperidine-1-carboxylate]
Metabolite Hydrolysis (SN-38) ([2]; Hepatocytes Dog): √ | Metabolite Hydrolysis (SDC-TRAP-0062) ([2]; Hepatocytes Dog): √ | Metabolite Hydrolysis (SN-38) + glucuronidation ([2]; Hepatocytes Dog): — | Metabolite Hydrolysis (SDC-TRAP-0062) + glucuronidation ([2]; Hepatocytes Dog): — | Metabolite Hydrolysis (SDC-TRAP-0063) ([2]; Hepatocytes Dog): — | Metabolite Hydrolysis (SDC-TRAP-0063) + glucuronidation ([2]; Hepatocytes Dog): — | Metabolite Glucuronidation ([2]; Hepatocytes Dog): — | Metabolite Hydrolysis (SN-38) ([2]; Hepatocytes Human): √ | Metabolite Hydrolysis (SDC-TRAP-0062) ([2]; Hepatocytes Human): √ | Metabolite Hydrolysis (SN-38) + glucuronidation ([2]; Hepatocytes Human): — | Metabolite Hydrolysis (SDC-TRAP-0062) + glucuronidation ([2]; Hepatocytes Human): — | Metabolite Hydrolysis (SDC-TRAP-0063) ([2]; Hepatocytes Human): √ | Metabolite Hydrolysis (SDC-TRAP-0063) + glucuronidation ([2]; Hepatocytes Human): √ | Metabolite Glucuronidation ([2]; Hepatocytes Human): — | Metabolite Hydrolysis (SN-38) ([2]; Hepatocytes Monkey): — | Metabolite Hydrolysis (SDC-TRAP-0062) ([2]; Hepatocytes Monkey): — | Metabolite Hydrolysis (SN-38) + glucuronidation ([2]; Hepatocytes Monkey): √ | Metabolite Hydrolysis (SDC-TRAP-0062) + glucuronidation ([2]; Hepatocytes Monkey): √ | Metabolite Hydrolysis (SDC-TRAP-0063) ([2]; Hepatocytes Monkey): — | Metabolite Hydrolysis (SDC-TRAP-0063) + glucuronidation ([2]; Hepatocytes Monkey): √ | Metabolite Glucuronidation ([2]; Hepatocytes Monkey): √ | Metabolite Hydrolysis (SN-38) ([2]; Hepatocytes Mouse): √ | Metabolite Hydrolysis (SDC-TRAP-0062) ([2]; Hepatocytes Mouse): √ | Metabolite Hydrolysis (SN-38) + glucuronidation ([2]; Hepatocytes Mouse): — | Metabolite Hydrolysis (SDC-TRAP-0062) + glucuronidation ([2]; Hepatocytes Mouse): — | Metabolite Hydrolysis (SDC-TRAP-0063) ([2]; Hepatocytes Mouse): — | Metabolite Hydrolysis (SDC-TRAP-0063) + glucuronidation ([2]; Hepatocytes Mouse): √ | Metabolite Glucuronidation ([2]; Hepatocytes Mouse): √ | Metabolite Hydrolysis (SN-38) ([2]; Hepatocytes Rat): — | Metabolite Hydrolysis (SDC-TRAP-0062) ([2]; Hepatocytes Rat): √ | Metabolite Hydrolysis (SN-38) + glucuronidation ([2]; Hepatocytes Rat): — | Metabolite Hydrolysis (SDC-TRAP-0062) + glucuronidation ([2]; Hepatocytes Rat): — | Metabolite Hydrolysis (SDC-TRAP-0063) ([2]; Hepatocytes Rat): — | Metabolite Hydrolysis (SDC-TRAP-0063) + glucuronidation ([2]; Hepatocytes Rat): √ | Metabolite Glucuronidation ([2]; Hepatocytes Rat): —

CCc1c2c(nc3ccc(O)cc13)-c1cc3c(c(=O)n1C2)COC(=O)[C@@]3(CC)OC(=O)CN1CCC(CCn2ccc3cc(-n4c(O)nnc4-c4cc(C(C)C)c(O)cc4O)ccc32)CC1 [SDC-TRAP-0107, (S)-4,11-diethyl-9-hydroxy-3,14-dioxo-3,4,12,14-tetrahydro-1H-pyrano[3′,4′:6,7]indolizino[1,2-b]quinolin-4-yl 2-(4-(2-(5-(3-(2,4-dihydroxy-5-isopropylphenyl)-5-hydroxy-4H-1,2,4-triazol-4-yl)-1H-indol-1-yl)ethyl)piperidin-1-yl)acetate]
% Remaining (1 h) [1]: 111%

CCNC(=O)c1nnc(-c2cc(C(C)C)c(O)cc2O)n1-c1ccc(S(=O)(=O)N2CCC(C(=O)N3CCN(C(=O)Oc4ccc5nc6c(c(CC)c5c4)Cn4c-6cc5c(c4=O)COC(=O)C5(O)CC)C(C)C3)CC2)cc1 (centres unmarked) [SDC-TRAP-0396, 4,11-diethyl-4-hydroxy-3,14-dioxo-3,4,12,14-tetrahydro-1H-pyrano[3′,4:6,7]indolizino[1,2-b]quinolin-9-yl 4-(1-((4-(3-(2,4-dihydroxy-5-isopropylphenyl)-5-(ethylcarbamoyl)-4H-1,2,4-triazol-4-yl)phenyl)sulfonyl)piperidine-4-carbonyl)-2-methylpiperazine-1-carboxylate]
% Remaining (1 h) [1]: 71.6%

CCc1c2c(nc3ccc(O)cc13)-c1cc3c(c(=O)n1C2)COC(=O)[C@@]3(CC)OC(=O)CN1CCC(CCc2ccc(-n3c(O)nnc3-c3cc(C(C)C)c(O)cc3O)cc2)CC1 [SDC-TRAP-0106, (S)-4,11-diethyl-9-hydroxy-3,14-dioxo-3,4,12,14-tetrahydro-1H-pyrano[3′,4′:6,7]indolizino[1,2-b]quinolin-4-yl 2-(4-(4-(3-(2,4-dihydroxy-5-isopropylphenyl)-5-hydroxy-4H-1,2,4-triazol-4-yl)phenethyl)piperidin-1-yl)acetate]
% Remaining (1 h) [1]: 114%

CC(C)c1cc(-c2nnc(O)n2-c2ccc3c(ccn3CCC3CCNCC3)c2)c(O)cc1O [SDC-TRAP-0062]
Metabolite N-dealkylation + glucuronidation ([2]; Hepatocytes Dog): √ | Metabolite N-dealkylation + glucuronidation ([2]; Hepatocytes Human): √ | Metabolite N-dealkylation + glucuronidation ([2]; Hepatocytes Monkey): — | Metabolite N-dealkylation + glucuronidation ([2]; Hepatocytes Mouse): √ | Metabolite Sulfation ([2]; Hepatocytes Mouse): — | Metabolite N-dealkylation + glucuronidation ([2]; Hepatocytes Rat): — | Metabolite Sulfation ([2]; Hepatocytes Rat): √

CC(C)c1cc(-c2nnc(O)n2-c2ccc3c(ccn3CCC3CCNCC3)c2)c(O)cc1O [DP-1]
Tumor Conc. ([3]; 24 h): 0.404 nmol/g of tissue | Tumor Conc. ([3]; 48 h): 1.06 nmol/g of tissue | Tumor Conc. ([3]; […]): 0.00758 nmol/g of tissue
